Reference: ChEMBL document CHEMBL1201862, “PubChem BioAssay data set” (2004)
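Briefly, cells in 96-well plates were exposed to five compound concentrations for 48 h, and endpoints were estimated by linear interpolation. Here, GI50 denotes the concentration required for 50% inhibition of growth.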 Activity calls are given as the source filed them. Rule as the data show it: active = GI50 up to about 1.1 µM and inactive = higher.

What was measured:
Experiment in all cases: NCI tumour cell line growth inhibition, 48 h
SF-539 = test system: SF-539
SF-268 = test system: SF-268
M14 = test system: M14
OVCAR-8 = test system: OVCAR-8
RXF 393 = test system: RXF 393
HCT-15 = test system: HCT-15
SK-MEL-2 = test system: SK-MEL-2
SK-MEL-28 = test system: SK-MEL-28
NCI-H522 = test system: NCI-H522
CAKI-1 = test system: CAKI-1
HOP-92 = test system: HOP-92
MDA-MB-435 = test system: MDA-MB-435
SW-620 = test system: SW-620
ACHN = test system: ACHN
A549 = test system: A549
IGROV-1 = test system: IGROV-1
DU-145 = test system: DU-145
NCI-H23 = test system: NCI-H23
NCI/ADR-RES = test system: NCI/ADR-RES
U-251 = test system: U-251
UO-31 = test system: UO-31
UACC-62 = test system: UACC-62
UACC-257 = test system: UACC-257
NCI-H460 = test system: NCI-H460
Malme-3M = test system: Malme-3M
SK-MEL-5 = test system: SK-MEL-5
OVCAR-5 = test system: OVCAR-5
TK-10 = test system: TK-10
HT-29 = test system: HT-29
SR = test system: SR
SNB-19 = test system: SNB-19
OVCAR-3 = test system: OVCAR-3
SK-OV-3 = test system: SK-OV-3
SF-295 = test system: SF-295
T47D = test system: T47D
K562 = test system: K562
KM12 = test system: KM12
HCT-116 = test system: HCT-116
OVCAR-4 = test system: OVCAR-4
CCRF-CEM = test system: CCRF-CEM
HCC 2998 = test system: HCC 2998
Hs-578T = test system: Hs-578T
RPMI-8226 = test system: RPMI-8226
HL-60 = test system: HL-60
MDA-N = test system: MDA-N
NCI-H226 = test system: NCI-H226
MDA-MB-231 = test system: MDA-MB-231
EKVX = test system: EKVX
786-0 = test system: 786-0
PC-3 = test system: PC-3
SN12C = test system: SN12C
BT-549 = test system: BT-549
COLO 205 = test system: COLO 205
LOX IMVI = test system: LOX IMVI
MOLT-4 = test system: MOLT-4
MCF7 = test system: MCF7
HOP-62 = test system: HOP-62
SNB-75 = test system: SNB-75

COC(=O)[C@H](Cc1ccccc1)NC(=O)CCCCCCC(=O)NO
GI50 (SF-539): 20.6 µM (inactive)
GI50 (SF-268): 12.3 µM (inactive)
GI50 (M14): 20.9 µM (inactive)
GI50 (OVCAR-8): 5.28 µM (inactive)
GI50 (RXF 393): 5.05 µM (inactive)
GI50 (HCT-15): 56.4 µM
GI50 (SK-MEL-2): 4.6 µM (inactive)
GI50 (SK-MEL-28): > 100 µM (inactive)
GI50 (NCI-H522): 4.68 µM (inactive)
GI50 (CAKI-1): 28.3 µM (inactive)
GI50 (HOP-92): 17.3 µM (inactive)
GI50 (MDA-MB-435): 13.5 µM (inactive)
GI50 (SW-620): 11.6 µM (inactive)
GI50 (ACHN): > 100 µM (inactive)
GI50 (A549): 44.5 µM (inactive)
GI50 (IGROV-1): 17.7 µM (inactive)
GI50 (DU-145): 7.23 µM (inactive)
GI50 (NCI-H23): 26.4 µM (inactive)
GI50 (NCI/ADR-RES): 23.1 µM (inactive)
GI50 (U-251): 17.3 µM (inactive)
GI50 (UO-31): 33.4 µM (inactive)
GI50 (UACC-62): 11.5 µM (inactive)
GI50 (UACC-257): 10.1 µM (inactive)
GI50 (NCI-H460): 12.3 µM (inactive)
GI50 (Malme-3M): 2.65 µM (inactive)
GI50 (SK-MEL-5): 8.91 µM (inactive)
GI50 (OVCAR-5): 4.18 µM (inactive)
GI50 (TK-10): 13.8 µM (inactive)
GI50 (HT-29): 17.6 µM (inactive)
GI50 (SR): 4.89 µM (inactive)
GI50 (SNB-19): > 100 µM (inactive)
GI50 (OVCAR-3): 10.7 µM (inactive)
GI50 (SK-OV-3): 15.2 µM (inactive)
GI50 (SF-295): 10.7 µM (inactive)
GI50 (T47D): 0.605 µM (active)
GI50 (K562): 6.53 µM (inactive)
GI50 (KM12): 28.8 µM (inactive)
GI50 (HCT-116): 5.15 µM (inactive)
GI50 (OVCAR-4): 39.8 µM (inactive)
GI50 (CCRF-CEM): 2.67 µM (inactive)
GI50 (HCC 2998): 16.1 µM (inactive)
GI50 (Hs-578T): 12.6 µM (inactive)
GI50 (RPMI-8226): 4.62 µM (inactive)
GI50 (HL-60): 6.01 µM (inactive)
GI50 (MDA-N): 19 µM (inactive)
GI50 (NCI-H226): 75.3 µM (inactive)
GI50 (MDA-MB-231): 21.6 µM (inactive)
GI50 (EKVX): > 100 µM (inactive)
GI50 (786-0): 28.6 µM (inactive)
GI50 (PC-3): 8.79 µM (inactive)
GI50 (SN12C): > 100 µM (inactive)
GI50 (BT-549): > 100 µM (inactive)
GI50 (COLO 205): 54.5 µM (inactive)
GI50 (LOX IMVI): 15.4 µM (inactive)
GI50 (MOLT-4): 2.7 µM (inactive)
GI50 (MCF7): 46.1 µM (inactive)

CC1(C)CC2C=C(C=O)C3(C=O)CC3(C)C2C1 (stereo not drawn)
GI50 (SF-539): 1.95 µM (inactive)
GI50 (SF-268): 3.88 µM (inactive)
GI50 (M14): 2.29 µM (inactive)
GI50 (OVCAR-8): 1.95 µM (inactive)
GI50 (HOP-62): 2.09 µM (inactive)
GI50 (RXF 393): 1.94 µM (inactive)
GI50 (HCT-15): 1.64 µM
GI50 (SK-MEL-2): 2.07 µM (inactive)
GI50 (SK-MEL-28): 2.06 µM (inactive)
GI50 (NCI-H522): 1.09 µM (active)
GI50 (CAKI-1): 2.05 µM (inactive)
GI50 (HOP-92): 1.95 µM (inactive)
GI50 (MDA-MB-435): 1.75 µM (inactive)
GI50 (SW-620): 0.582 µM (active)
GI50 (ACHN): 1.49 µM (inactive)
GI50 (A549): 10.2 µM (inactive)
GI50 (IGROV-1): 2.15 µM (inactive)
GI50 (DU-145): 5.45 µM (inactive)
GI50 (NCI-H23): 1.83 µM (inactive)
GI50 (NCI/ADR-RES): 1.76 µM (inactive)
GI50 (U-251): 1.79 µM (inactive)
GI50 (UO-31): 1.69 µM (inactive)
GI50 (SNB-75): 1.89 µM (inactive)
GI50 (UACC-62): 5.46 µM (inactive)
GI50 (UACC-257): 2.38 µM (inactive)
GI50 (NCI-H460): 4.44 µM (inactive)
GI50 (SK-MEL-5): 1.64 µM (inactive)
GI50 (OVCAR-5): 1.79 µM (inactive)
GI50 (TK-10): 2.39 µM (inactive)
GI50 (HT-29): 1.41 µM (inactive)
GI50 (SR): 0.218 µM (active)
GI50 (SNB-19): 11.8 µM (inactive)
GI50 (OVCAR-3): 0.944 µM (active)
GI50 (SK-OV-3): 3.43 µM (inactive)
GI50 (SF-295): 4.5 µM (inactive)
GI50 (T47D): 1.33 µM (inactive)
GI50 (K562): 1.1 µM (active)
GI50 (KM12): 4.39 µM (inactive)
GI50 (HCT-116): 0.847 µM (active)
GI50 (OVCAR-4): 1.73 µM (inactive)
GI50 (CCRF-CEM): 0.0468 µM (active)
GI50 (HCC 2998): 5.5 µM (inactive)
GI50 (Hs-578T): 2.24 µM (inactive)
GI50 (RPMI-8226): 0.378 µM (active)
GI50 (HL-60): 0.0333 µM (active)
GI50 (MDA-N): 2.9 µM (inactive)
GI50 (NCI-H226): 4.21 µM (inactive)
GI50 (MDA-MB-231): 1.91 µM (inactive)
GI50 (EKVX): 3.4 µM (inactive)
GI50 (786-0): 1.52 µM (inactive)
GI50 (PC-3): 1.12 µM (active)
GI50 (SN12C): 2.54 µM (inactive)
GI50 (BT-549): 1.81 µM (inactive)
GI50 (COLO 205): 1.89 µM (inactive)
GI50 (LOX IMVI): 1.34 µM (inactive)
GI50 (MOLT-4): 0.191 µM (active)
GI50 (MCF7): 1.34 µM (inactive)
